Measured values published in patent publication US7105529B2, “Substituted oxindole derivatives as protein tyrosine and as protein serine/threonine kinase inhibitors and compositions and methods of treating chemotherapy and radiation therapy side effects” (SmithKline Beecham Corporation, priority 1997, dated 2006).
Where two headings read alike, the source gives them in different places.

Tests used:
Assay type in all cases: cell-based
[1] = system: human diploid fibroblasts (HDF-3); test: G1-S progression assay (BrdU incorporation); conditions: read-out: G1/S Chkpt (IC50)
Protocol: This assay is designed to determine the ability of compounds to inhibit progression of cells from G1 into S-phase. […] The protocol is as follows: • (1) Grow human diploid fibroblasts (HDF-3) in 100 mm tissue culture dish to confluency. (2) Plate 6–7×10^3 cells/well in a 96 well plate in 100 μl of DMEM. […] Dilute compound in DMEM containing DMSO and add 100 μl to each well so that the DMSO conc. is 0.6–0.8% in 200 μl final volume. (4) Two h after addition of compound, add 20 μl of 100 μM Br dU (final conc. 10 μM) Make 100 μM solution in DMEM from 10 mM stock solution. (5) After 4 h, add 200 μl PBS to each well and remove the contents of the wells by inverting the plate and soaking on to the paper towel. Repeat the washing step three times, with 400 ul PBS each time. (6) Fix the cells and denature the DNA by adding 200 μl fixation/denaturation solution to each well for 30–40 min. (7) Remove the fixation/denaturation solution by tapping the plate on the paper towel and add 75 μl of anti BrdU peroxidase antibody to each well. (dilute the antibody to 0.1 U/mL from 15 U/mL stock in PBS containing 1% BSA, Fraction V). Incubate the plate O/N at 4° C. (8) Remove the antibody solution and wash wells four times with 400 μl of PBS. Let the wash solution stay for 3–4 min during each wash. (9) Drain the wells and add 100 μl of chemiluminiscence Elisa reagent (Prepare the reagent 15–20 min before use to bring it to rt by mixing 100 parts of reagent A with 1 part of reagent B). (10) Read the plate in a luminometer. Take 2–3 readings within 6–7 min. Perform the following controls: [table] Deoxybromouridine (BrdU), anti BrdU peroxidase antibodies, fixation/denaturation solution, chemiluminiscence reagent and BSA Fraction V, were obtained from Boehringer Mannheim. The 96-well white plate with clear bottom were purchased from Corning Costar Corporation. Dulbecco's Modified Eagle Medium containing high glucose, L-glutamine and pyridoxine HCl was obtained from GIBCO BRL.

[2] = system: HDF normal diploid fibroblast cells; test: MTT assay, HDF; conditions: 72 h
Protocol: Compounds are tested for their ability to inhibit cell proliferation and cell viability. The metabolic conversion of 3-(4,5-dimethylthiazol-2-yl)-2,5-diphenyltetrazolium bromide (MTT, Sigma #M2128) to a reduced form is a commonly used measure of cellular viability. Following is the procedure: Cells are maintained in 75 cm^2 tissue culture flasks until ready for use. The cells are grown and plated for the assay in Dulbecco's modified Eagle's media (DMEM) containing 10% fetal bovine serum. For example, the following cell lines can be used: a) human foreskin fibroblasts (HFF); b) HT29 (human colon carcinoma cell line); c) MDA-MB468 (human breast carcinoma cell line); d) RKO (human colon adenocarcinoma cell line); e) SW620 (human colon carcinoma cell line); f A549 (human lung carcinoma cell line); and g) MIA PACA (human pancreatic carcinoma cell line). Cells are maintained at 37° C. in 10% CO2, 90% humidified air. Cells are plated in 96-well tissue culture plates at the densities listed below. 100 μL of cell suspension is added to each well of the 96-well plate except the top row of the plate which contains no cells and serves as a reference for the spectrophotometer. [table] Cells are incubated overnight in DMEM containing 10% fetal bovine serum at 37° C. in 10% CO2, 90% humidified air prior to dosing. […] Compounds with solubilities of less than 30 μM are dosed at the highest soluble concentration. Stock solutions of compounds are made in 100% dimethyl sulfoxide (DMSO). Stock solutions are diluted in DMEM containing 100 μg/ml gentamicin and 0.3 to 0.6% DMSO at the twice the highest concentration to be placed on the cells. If compounds have been dissolved in DMSO the final concentration of DMSO on the cells is kept below 0.3%. Three-fold serial dilutions are performed on each compound to prepare 10 concentrations of the compound for dosing. 100 μl of diluted compound is added to the 100 μl of media currently on the dish. For each concentration of compound, 2–4 replicate wells are prepared. Cells are returned to incubator and allowed to proliferate in the presence of compound for 72 h before addition of MTT. […] After 4 h incubation the media, compound and MTT mixture is aspirated from the plates and 100 μl of 100% DMSO is added to each well in addition to 25 μl of Sorenson's Buffer (0.1M glycine, 0.1M NaCl, pH 10.5). Quantitation of metabolic reduction of MTT in each plate is performed by reading optical density at 570 nm wavelength on a Molecular Devices UVmax microplate reader. […] HDF are normal diploid fibroblast cells. RKO are colon adenocarcinoma cells and MES/SA are ovarian carcinoma cells.

[3] = system: RKO (human colon adenocarcinoma cell line); test: MTT assay, RKO; conditions: 72 h
Protocol: Compounds are tested for their ability to inhibit cell proliferation and cell viability. The metabolic conversion of 3-(4,5-dimethylthiazol-2-yl)-2,5-diphenyltetrazolium bromide (MTT, Sigma #M2128) to a reduced form is a commonly used measure of cellular viability. Following is the procedure: Cells are maintained in 75 cm^2 tissue culture flasks until ready for use. The cells are grown and plated for the assay in Dulbecco's modified Eagle's media (DMEM) containing 10% fetal bovine serum. For example, the following cell lines can be used: a) human foreskin fibroblasts (HFF); b) HT29 (human colon carcinoma cell line); c) MDA-MB468 (human breast carcinoma cell line); d) RKO (human colon adenocarcinoma cell line); e) SW620 (human colon carcinoma cell line); f A549 (human lung carcinoma cell line); and g) MIA PACA (human pancreatic carcinoma cell line). Cells are maintained at 37° C. in 10% CO2, 90% humidified air. Cells are plated in 96-well tissue culture plates at the densities listed below. 100 μL of cell suspension is added to each well of the 96-well plate except the top row of the plate which contains no cells and serves as a reference for the spectrophotometer. [table] Cells are incubated overnight in DMEM containing 10% fetal bovine serum at 37° C. in 10% CO2, 90% humidified air prior to dosing. […] Compounds with solubilities of less than 30 μM are dosed at the highest soluble concentration. Stock solutions of compounds are made in 100% dimethyl sulfoxide (DMSO). Stock solutions are diluted in DMEM containing 100 μg/ml gentamicin and 0.3 to 0.6% DMSO at the twice the highest concentration to be placed on the cells. If compounds have been dissolved in DMSO the final concentration of DMSO on the cells is kept below 0.3%. Three-fold serial dilutions are performed on each compound to prepare 10 concentrations of the compound for dosing. 100 μl of diluted compound is added to the 100 μl of media currently on the dish. […] Quantitation of metabolic reduction of MTT in each plate is performed by reading optical density at 570 nm wavelength on a Molecular Devices UVmax microplate reader. […]

SMILES: COC(=O)c1ccc2c(c1)/C(=C/Nc1ccc(S(N)(=O)=O)cc1)C(=O)N2 [Example 27]
- IC50 ([1]; Homo sapiens, Fibroblast): 1100 to 5000 nM
- IC50 ([2]; Fibroblast): 1.1 to 5 µM
- IC50 ([3]; Homo sapiens): 1100 to 5000 nM

SMILES: NS(=O)(=O)c1ccc(NN=C2C(=O)Nc3ccc(-c4cnco4)cc32)cc1 [Example 36]
- IC50 ([1]; Homo sapiens, Fibroblast): 600 to 1000 nM
- IC50 ([2]; Fibroblast): 1.1 to 5 µM
- IC50 ([3]; Homo sapiens): 600 to 1000 nM

SMILES: O=C1Nc2ccc3ncsc3c2C1=CNc1ccc(S(=O)(=O)NCc2ccncc2)cc1 [Example 104, 4-[(7-Oxo-6,7-dihydro-1-thia-3,6-diaza-as-indacen-8-ylidenemethyl)amino]-N-pyridinyl-4-yl-methyl benzenesulfonamide]
- IC50 [1]: 1100 to 5000 nM
- IC50 [2]: 1.1 to 5 µM
- IC50 [3]: 1100 to 5000 nM
